The record followed here is patent US20250275976A1, “Methods of Treating Neuroinflammatory Conditions” (Athira Pharma, Inc., priority 2022, published 2025).

SMILES strings stand for the structures. Square brackets hold non-standard residues; d marks the D form. Peptide text beside a SMILES is read from it. * marks the point of attachment. Hexanoyl = CCCCCC(=O)*; Ahx = NCCCCCC(=O)O

The test system of experiment [1] is THP-1-differentiated macrophages. The experiment is described as follows: Pro-inflammatory cytokines in supernatants of LPS-challenged THP-1-differentiated macrophages. The experiment is classed as cell-based, human. To be noted: for Expression of IL-1β and TNF-α (result in words) / Expression of IL-6 (result in words): at at least one tested dose; for Significant reduction in pro-inflammatory cytokine expression: IL-1β / Significant reduction in pro-inflammatory cytokine expression: IL-6 / Significant reduction in pro-inflammatory cytokine expression: TNF-α: LPS 24 hrs. Details: key to Significant reduction in pro-inflammatory cytokine expression: IL-6 / Significant reduction in pro-inflammatory cytokine expression: TNF-α / Significant reduction in pro-inflammatory cytokine expression: IL-1β: “NS” indicates a non-significant reduction in the indicated cytokine; “+” indicates a p value <0.05 in Tukey post test; “++” indicates a p value <0.01 in Tukey post test. An excerpt:
Neuroinflammation plays a crucial role in disease progression and is a complex phenomenon involving various cells that affect many extra- and intracellular signaling pathways and cytokine production. The macrophage of the brain (microglia) is the main agent of innate immunity in the CNS and performs various functions, including neuroprotection, in response to inflammatory signals. Activated microglia participate in developing neuroinflammation, responding to toxic exogenous substances (like LPS) or endogenous substances (like amyloid-beta). Here, THP-1 cells were used as an in-vitro cell model to evaluate mechanisms relevant to CNS inflammation. Differentiation with phorbol-12-myristate-13-acetate (PMA) causes THP-1 monocyte cells to acquire functional and morphological resemblance to macrophages. LPS interacts with THP-1 differentiated macrophage through the toll-like receptor 4, triggering the inflammatory response and stimulating pro-inflammatory cytokine release and eventually leading to cellular death. Test compounds were investigated for whether they have anti-inflammatory effects on LPS-challenged macrophage cultures. THP-1-differentiated macrophages were treated with test compounds for 20 minutes, followed by 24 hrs of LPS challenge. Culture supernatants were then collected to analyzed for the presence of pro-inflammatory cytokines: interleukin 1β (IL--1β), interleukin 6 (IL-6) and tumor necrosis factor α (TNF-α).
Cytokine quantification in cell culture supernatants was accomplished by homogeneous time resolved fluorescence (HTRF) kits to assess levels of IL-1β (Human IL-1β kit, #62HIL1BPEG, Cisbio) and IL-6 (Human IL-6 kit, 62HILO6PET, Cisbio), and by ELISA (Human TNF-α ELISA kit, KHC3011, ThermoFisher) to determine the levels of TNF-α.
Data analysis was performed via 1-way ANOVA with Tukey post-test compared to LPS treatment cultures using Prism statistical software (GraphPad). Tabular data indicates significance of reduction in culture supernatants for the indicated analyte at the indicated dose.

Experiment [2] deals with Rat primary cortical neuron cultures. Description: Neuroprotection of rat cortical neurons against LPS challenge (Cell Titer-Glo). To be noted: for Protection of primary neurons from LPS-stimulated inflammatory toxicity (in words): at at least one dose tested; for Significance of neuroprotection vs 1 uM LPS: LPS 24 h.
Procedure: To assess the neuroprotective effect of compound treatment against inflammatory insult, primary cultured cortical neurons were subjected to lipopolysaccharide (LPS) treatment for 24h along with various compound doses of compounds of Formula (I) or Compound A19. […] Rat primary cortical neuron cultures were grown at 37° C., 5% C02 in Complete Neurobasal Medium supplemented with B27/GDNF/BDNF containing 10% FBS until maturity. 25 μl of culture volume were seeded in a 384-well plate at 5,000 cells/well, and treated with 1 μM, 100 nM, 10 nM, 1 nM, or 0.1 nM of test compound for 15 minutes. Cells were then subjected to 1 μM LPS challenge for 24 hours. Luminescence measurements to assess relative levels of ATP were performed on an Envision plate reader (Perkin Elmer). Data for DMSO control were set to 100% cell viability, and each group (n=4) were averaged and presented as mean±SEM.

`CCC(C)CN1CC2N(C(=O)c3ccc(C(F)(F)F)cc3)CCC(=O)N2[C@@H](C)C1=O` (some centres unmarked) [Compound 1a]: in experiment [1], the “Expression of IL-1β and TNF-α (result in words)” value (from here on “Expression of IL-1β and TNF-α”) is reported as “significantly reduced”; the “Expression of IL-6 (result in words)” value was “significantly reduced”. In addition, in experiment [1] (dose 0.1 nM), the “Significant reduction in pro-inflammatory cytokine expression: IL-1β” value (from here on “Significant reduction … IL-1β”) is “++ (“++” indicates a p value <0.01 in Tukey post test)”, the “Significant reduction in pro-inflammatory cytokine expression: IL-6” value (“Significant reduction … IL-6” below) is listed as “NS” and the “Significant reduction in pro-inflammatory cytokine expression: TNF-α” value (from here on “Significant reduction … TNF-α”) is given as “++ (“++” indicates a p value <0.01 in Tukey post test)”. In addition, in experiment [1] (dose 10 nM), the “Significant reduction … IL-1β” value is given as “++ (“++” indicates a p value <0.01 in Tukey post test)”, the “Significant reduction … IL-6” value is given as “++ (“++” indicates a p value <0.01 in Tukey post test)” and the “Significant reduction … TNF-α” value is given as “++ (“++” indicates a p value <0.01 in Tukey post test)”. Also, in experiment [1] (dose 1000 nM), the “Significant reduction … IL-1β” value is “++ (“++” indicates a p value <0.01 in Tukey post test)”, the “Significant reduction … IL-6” value is given as “+ (“+” indicates a p value <0.05 in Tukey post test)” and the “Significant reduction … TNF-α” value is given as “++ (“++” indicates a p value <0.01 in Tukey post test)”. Further, the “Protection of primary neurons from LPS-stimulated inflammatory toxicity (in words)” value (“Protection of primary neurons” below) in experiment [2] was “protected primary neurons from LPS-stimulated inflammatory toxicity”.
As to `CCC(C)CN1CC2N(Cc3ccc(C(F)(F)F)cc3)CCC(=O)N2[C@@H](C)C1=O` (some centres unmarked) [Compound 5a], in experiment [1], the “Expression of IL-1β and TNF-α” value is “significantly reduced”; the “Expression of IL-6 (result in words)” value was “significantly reduced”. In experiment [1] (dose 0.1 nM), the “Significant reduction … IL-1β” value is listed as “++ (“++” indicates a p value <0.01 in Tukey post test)”, the “Significant reduction … IL-6” value is given as “NS” and the “Significant reduction … TNF-α” value is given as “NS”. Also, in experiment [1] (dose 10 nM), the “Significant reduction … IL-1β” value is listed as “++ (“++” indicates a p value <0.01 in Tukey post test)”, the “Significant reduction … IL-6” value is given as “+ (“+” indicates a p value <0.05 in Tukey post test)” and the “Significant reduction … TNF-α” value is recorded as “NS”. Moreover, in experiment [1] (dose 1000 nM), the “Significant reduction … IL-1β” value is given as “++ (“++” indicates a p value <0.01 in Tukey post test)”, the “Significant reduction … IL-6” value was “++ (“++” indicates a p value <0.01 in Tukey post test)” and the “Significant reduction … TNF-α” value is reported as “+ (“+” indicates a p value <0.05 in Tukey post test)”. Further, the “Protection of primary neurons” value in experiment [2] was “protected primary neurons from LPS-stimulated inflammatory toxicity”.
In the case of `CCCCCC(=O)N[C@@H](Cc1ccc(O)cc1)C(=O)N[C@H](C(=O)NCCCCCC(N)=O)[C@@H](C)CC` [Compound A19 active metabolite, dihexa] (Hexanoyl-Tyr-Ile-[Ahx]-NH2), the “Expression of IL-1β and TNF-α” value in experiment [1] is on record as “significantly reduced”. Further, in experiment [1], the “Expression of IL-6 (result in words)” value was “significantly reduced”. The entries for the “Significant reduction … IL-1β” value in experiment [1] (dose 0.1 nM), in experiment [1] (dose 10 nM) and in experiment [1] (dose 1000 nM) were “NS”, “++ (“++” indicates a p value <0.01 in Tukey post test)” and “+ (“+” indicates a p value <0.05 in Tukey post test)”, respectively. Further, the “Significant reduction … IL-6” value in experiment [1] (dose 0.1 nM) was “NS”; in experiment [1] (dose 10 nM), “+ (“+” indicates a p value <0.05 in Tukey post test)”; in experiment [1] (dose 1000 nM) it was “++ (“++” indicates a p value <0.01 in Tukey post test)”. The “Significant reduction … TNF-α” value in experiment [1] (dose 0.1 nM) is “NS”; in experiment [1] (dose 10 nM), “+ (“+” indicates a p value <0.05 in Tukey post test)”; in experiment [1] (dose 1000 nM), “++ (“++” indicates a p value <0.01 in Tukey post test)”. The “Protection of primary neurons” value in experiment [2] is on record as “protected primary neurons from LPS-stimulated inflammatory toxicity”. Moreover, the “Significance of neuroprotection vs 1 uM LPS” value in experiment [2] (dose 0.1 nM) is on record as “+++ (+++ indicates p<0.001)”; in experiment [2] (dose 1 nM), “++ (++ indicates p<0.01)”; in experiment [2] (dose 10 nM), “+++ (+++ indicates p<0.001)”; in experiment [2] (dose 100 nM), “++ (++ indicates p<0.01)”; in experiment [2] (dose 1 μM), “++ (++ indicates p<0.01)”.
